In patent publication US7332177B1, “Method and formulation for treating resistance to antihypertensives and related conditions” (Neurim Pharmaceuticals (1991) Ltd., priority 2000, dated 2008):

Assays:
rabbit aorta = details: high concentrations 10-1000 μM; in vitro; cited from earlier work
[1] = Experiment 1: morning blood pressure after 3 weeks of controlled-release melatonin in elderly insomnia patients; format: in vivo, human; details: hypertensive elderly subjects; administration in the evening
Experimental: All patients, who had been insomniacs, were diagnosed according to DSM IV. They consisted of 86 men and 96 women, age 72±9 years. […] During the last week of the treatment period, BP was assessed at the morning and comparisons were made between placebo or melatonin treatments, and baseline.

[2] = 2 mg/os daily at 18:00 h for 2 months; adult men; cited from earlier work

Structure (SMILES): COc1ccc2[nH]cc(CCNC(C)=O)c2c1 [melatonin]
- Vasorelaxing action (rabbit aorta): observed
- daytime systolic and diastolic blood pressure [1]: decreased
- mean serum melatonin levels [2]: marked elevation
